Assay results published in patent US12171758B1, “Crystalline salt forms of kappa opioid receptor antagonist and products and methods related thereto” (Neumora Therapeutics, Inc., priority 2023, dated 2024).
“And” between values parts separate entries of the source, which are not always exact repeats. Equal entries are not always repeated.

Legend:
Type in all cases: physicochemical
[1] = Log D7.6 shake-flask (octanol/phosphate buffer) and Log P calculation; conditions: pH 7.6
Protocol: The actual weight was recorded. The solid was dissolved and diluted to volume with ACN:H2O (1:1, v/v). Stock solutions were prepared in duplicate. The stock solutions were diluted by 50 times by transferring 1 mL of stock solution into 50-mL volumetric flask and then diluted to volume with ACN/water ACN:H2O (1:1, v/v). The 1/50 solutions were used to collect spectra with full wave scanning from 190 nm to 700 nm and absorbance at 235 nm, 270 nm, 290 nm and 365 nm using spectrophotometer with the background subtracted. MEC was then calculated by the following equation: MEC(L mol−1 cm−1)=Absorbance/conc.(mol/L)/Cell length(cm) Log D7.6 Measurements Preparation of Solvents • 0.1 M KH2PO4: 1.36 g of solid KH2PO4 was added into a 100-mL volumetric flask, the solid was dissolved with ultrapure water and diluted to volume. • 0.1 M K2HPO4: 1.73 g of solid K2HPO4 was added into a 100-mL volumetric flask, the solid was dissolved with ultrapure water and diluted to volume. • 100 mL of 0.1 M K2HPO4 solution and 30 mL of 0.1 M KH2PO4 was transferred to a 250-mL beaker and mixed. […] Sample Analysis and Data Calculation • After phase separated, the phases were physically separated, and the concentrations of compounds in each phase were determined by HPLC using the HPLC conditions and parameters in Table 5. • Distribution coefficient, referred to as Dow, was calculated as the concentration of the test compound (both ionized and unionized) in the octanol phase divided by the corresponding concentration in the aqueous phase. Log D7.6 was calculated as an average of the log 10 of Dow based on three runs. […] The mixture was then diluted to volume with purified water, mixed, and pH was measured with a pH meter. • 50 mM citrate pH 4.0 buffer: 65.3 mg of citric acid (monohydrate) and 56.9 mg of sodium citrate (dihydrate) were transferred to a 10-mL volumetric flask, purified water was added to obtain the target volume, and pH was adjust to 4.0. […]

[2] = Molar extinction coefficient (MEC) to evaluate photo reactivity; conditions: for MEC Ave.: average of duplicate
Protocol: The actual weight was recorded. The solid was dissolved and diluted to volume with ACN:H2O (1:1, v/v). Stock solutions were prepared in duplicate. The stock solutions were diluted by 50 times by transferring 1 mL of stock solution into 50-mL volumetric flask and then diluted to volume with ACN/water ACN:H2O (1:1, v/v). The 1/50 solutions were used to collect spectra with full wave scanning from 190 nm to 700 nm and absorbance at 235 nm, 270 nm, 290 nm and 365 nm using spectrophotometer with the background subtracted. MEC was then calculated by the following equation: MEC(L mol−1 cm−1)=Absorbance/conc.(mol/L)/Cell length(cm) Log D7.6 Measurements Preparation of Solvents • 0.1 M KH2PO4: 1.36 g of solid KH2PO4 was added into a 100-mL volumetric flask, the solid was dissolved with ultrapure water and diluted to volume. • 0.1 M K2HPO4: 1.73 g of solid K2HPO4 was added into a 100-mL volumetric flask, the solid was dissolved with ultrapure water and diluted to volume. • 100 mL of 0.1 M K2HPO4 solution and 30 mL of 0.1 M KH2PO4 was transferred to a 250-mL beaker and mixed. Then, pH was adjusted 7.4 with the KH2PO4 solution. • Octanol and aqueous buffer were pre-equilibrated by adding 10 mL octanol and 10 mL aqueous buffer into a 20-mL glass vial and agitating the vial for 24 hrs. The mutually saturated octanol and aqueous buffer were then separated after phase separation. Sample Set up • Approximately 1.0 mg solids were weighted into a 3-mL glass vial with 1.0 mL of octanol inside, and dissolution was accelerated by ultrasonication. Then, 1.0 mL of complementary aqueous buffer was added into the vial. Samples were prepared in triplicate. The glass vial was sealed and mixed on a rotary mixer at 25° C. for 24 hrs. Sample Analysis and Data Calculation • After phase separated, the phases were physically separated, and the concentrations of compounds in each phase were determined by HPLC using the HPLC conditions and parameters in Table 5. • Distribution coefficient, referred to as Dow, was calculated as the concentration of the test compound (both ionized and unionized) in the octanol phase divided by the corresponding concentration in the aqueous phase. Log D7.6 was calculated as an average of the log 10 of Dow based on three runs. Solubility/Stability Measurements in pH Buffers Stock Solution Preparation • 0.2 M Hydrochloric Acid: 166 μL of 12 M hydrochloric acid is added into a 10-mL volumetric flask, and the resulting mixture was diluted to volume with purified water and mixed. • 0.2 M Sodium Hydroxide: 80.0 mg of sodium hydroxide was weighted into a 10-mL volumetric flask. The solid was dissolved with volume of purified water, diluted to volume and mixed. • 0.2 M Potassium Chloride: 148.8 mg of potassium chloride was weighted into a 10-mL volumetric flask. The solid was dissolved with volume of purified water, diluted to volume and mixed. • 0.2 M Potassium Phosphate, Monobasic: 271.5 mg of monobasic potassium phosphate (KH2PO4) was weighed into a 10-mL volumetric flask. The solid was dissolved with appropriate volume of purified water, diluted to volume and mixed. • 0.2 M Boric Acid and Potassium Chloride: 124.3 mg of boric acid (H3BO3) and 149.5 mg of potassium chloride (KCl) were mixed into a 10-mL volumetric flask. The solid was dissolved with appropriate volume of purified water, diluted to volume and mixed. pH Buffers Preparation • 50 mM KCl pH 2.0 buffer: 2.5 mL of 0.2 M potassium chloride solution and 0.65 mL of 0.2 M hydrochloric acid solution were transferred to a 10-mL volumetric flask. Purified water is added to the target volume, and pH is adjusted to 2.0. The mixture was then diluted to volume with purified water, mixed, and pH was measured with a pH meter. • 50 mM citrate pH 4.0 buffer: 65.3 mg of citric acid (monohydrate) and 56.9 mg of sodium citrate (dihydrate) were transferred to a 10-mL volumetric flask, purified water was added to obtain the target volume, and pH was adjust to 4.0. […]

[3] = pKa measurement (Sirius T3, Yasuda-Shedlovsky extrapolation); conditions: Sirius T3, MeOH and KCl solution, pH 2 to 12, Yasuda-Shedlovsky extrapolation
Source text: pKa Measurements pKa measurements were taken using a Sirius T3 instrument in a solvent (MeOH and KCl solution). The process ran from low to high pH (2 to 12). MEC Measurements

[4] = Solubility measurement in organic solvents at 25° C. for 24 hours; conditions: for solubility at 24 h: organic solvent or mixture, thermodynamic from solid; for Final form of residual solids: XRPD

CCc1cc(F)c2nc(N3CCC(NC4CCOCC4)CC3)c(-c3nc(C)no3)c(C)c2c1.Cl [HCl salt Type A, 1-(6-ethyl-8-fluoro-4-methyl-3-(3-methyl-1,2,4-oxadiazol-5-yl)quinolin-2-yl)-N-(tetrahydro-2H-pyran-4-yl)piperidin-4-amine hydrochloride]
Average of Log D7.6 ([1]; 24 h): 2.87 | logP ([1]; calculated: Log D7.6 + lg[1+10^(pKa-pH)]): 4 | logD [1]: 2.87 | MEC Ave. ([2]; 235 nm): 26184.9 L/mol/cm | MEC ([2]; 235 nm, single solution, ACN:H2O (1:1, v/v), hydrochloride): 26246.5 L/mol/cm and 26123.4 L/mol/cm | MEC Ave. ([2]; 270 nm): 29997.1 L/mol/cm | MEC ([2]; 270 nm, single solution, ACN:H2O (1:1, v/v), hydrochloride): 30005.4 L/mol/cm and 29988.9 L/mol/cm | MEC Ave. ([2]; 290 nm): 13591.0 L/mol/cm | MEC ([2]; 290 nm, single solution, ACN:H2O (1:1, v/v), hydrochloride): 13615.7 L/mol/cm and 13566.4 L/mol/cm | MEC Ave. ([2]; 365 nm): 2162.6 L/mol/cm | MEC ([2]; 365 nm, single solution, ACN:H2O (1:1, v/v), hydrochloride): 2207.7 L/mol/cm and 2117.4 L/mol/cm | MEC ([2]; at all selected wavelength): > 1000 L/mol/cm | pKa [3]: 8.68 | solubility at 24 h ([4]; 25 °C, nonpolar solvents (hexane, heptane and toluene)): < 88 µg/mL | solubility at 24 h ([4]; 25 °C, polar solvents (DMSO and MeOH)): > 24900 µg/mL | Final form of residual solids ([4]; Acetone, 24 hrs): HCl salt Type A | Final form of residual solids ([4]; DMSO, 24 hrs, hydrochloride): Amorphous form | Final form of residual solids ([4]; DMSO, 24 hrs, listed as HCl Salt Type A, hydrochloride): Amorphons | Final form of residual solids ([4]; EtOAc (printed EtQAc), 24 hrs): HCl salt Type A | Final form of residual solids ([4]; EtOH, 24 hrs): HCl salt Type A | Final form of residual solids ([4]; Heptane, 24 hrs): HCl salt Type A | Final form of residual solids ([4]; Hexane, 24 hrs): HCl salt Type A | Final form of residual solids ([4]; IPA, 24 hrs): HCl salt Type A | Final form of residual solids ([4]; MeOH, 24 hrs): HCl salt Type A | Final form of residual solids ([4]; Toluene, 24 hrs): HCl salt Type A | solubility at 24 h ([4]; ethanol, EtOH, 25° C., 24 hrs): 3500 µg/mL | solubility at 24 h ([4]; methanol, MeOH, 25° C., 24 hrs): 24900 µg/mL | solubility at 24 h ([4]; Acetone, 25° C., 24 hrs): 91 µg/mL | solubility at 24 h ([4]; DMSO, 25° C., 24 hrs): 33500 µg/mL | solubility at 24 h ([4]; EtOAc (printed EtQAc), 25° C., 24 hrs): 11 µg/mL | solubility at 24 h ([4]; Heptane, 25° C., 24 hrs): 0.8 µg/mL | solubility at 24 h ([4]; Hexane, 25° C., 24 hrs): 0.4 µg/mL | solubility at 24 h ([4]; Toluene, 25° C., 24 hrs): 8.8 µg/mL | form change ([4]; organic solvents other than DMSO): No form change
